Measurements: ChEMBL document CHEMBL3108715, “Pan-histone demethylase inhibitors simultaneously targeting Jumonji C and lysine-specific demethylases display high anticancer activities” (J Med Chem, 2014)
Calls of active or inactive are those of the source. No cut-off for these calls is given here.

Tests used:
LNCaP [1] = assay: Inhibition of LSD1/JmjC in human LNCAP cells assessed as increase in H3K9me3 level at 50 uM by Western blotting analysis; assay type: cell-based
Egl nine homolog 1 = Egl nine homolog 1 (Homo sapiens, UniProt Q9GZT9); assay: Inhibition of PHD2 (unknown origin) by mass spectrometry
Egl nine homolog 1, sequence (Q9GZT9 whole entry): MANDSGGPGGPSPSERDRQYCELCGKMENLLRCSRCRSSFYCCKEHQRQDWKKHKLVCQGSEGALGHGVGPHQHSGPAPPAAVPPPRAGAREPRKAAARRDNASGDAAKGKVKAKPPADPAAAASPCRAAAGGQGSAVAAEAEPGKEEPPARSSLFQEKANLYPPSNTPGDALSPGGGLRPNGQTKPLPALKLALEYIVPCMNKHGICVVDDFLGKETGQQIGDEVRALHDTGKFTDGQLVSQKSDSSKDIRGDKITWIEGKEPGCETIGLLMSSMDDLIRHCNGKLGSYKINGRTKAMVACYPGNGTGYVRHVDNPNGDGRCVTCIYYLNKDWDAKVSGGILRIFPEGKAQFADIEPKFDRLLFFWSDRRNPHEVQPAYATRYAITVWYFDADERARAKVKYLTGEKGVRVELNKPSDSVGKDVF

HCT-116 = assay: Cytotoxicity against human HCT116 cells at 50 uM after 6 hrs; assay type: functional, cell-based
LNCaP [2] = assay: Cytotoxicity against human LNCAP cells at 50 uM after 72 hrs; assay type: functional, cell-based

| IC50 (Egl nine homolog 1) [µM] | Compound | inhibition (LNCaP [1]) | Activity (HCT-116) | Activity (LNCaP [2]) |
| --- | --- | --- | --- | --- |
| 8.5 | Cl.N[C@@H]1C[C@H]1c1ccc(NC(=O)c2ccc(O)c3ncccc23)cc1 (relative stereo) | Active | Active | Active |
| 278 | N[C@@H]1C[C@H]1c1ccc(NC(=O)c2ccnc(-c3cc(C(=O)O)ccn3)c2)cc1 (relative stereo) |  |  |  |
|  | COC(=O)c1ccnc(-c2cc(C(=O)Nc3ccc([C@@H]4C[C@H]4N)cc3)ccn2)c1.Cl (relative stereo) | Active | Active | Active |
